Test results reported in patent US9701670B2, “Pyrazolyl-ureas as kinase inhibitors” (RESPIVERT LIMITED, priority 2013, dated 2017).

What was measured:
B-Raf (V600e) = B-Raf (V600e) (Homo sapiens (Human), UniProt P15056, V600E); experiment: Enzyme binding assay (KINOMEscan)
Experimental: The kinase enzyme binding activities of compounds disclosed herein were determined using a proprietary assay which measures active site-directed competition binding to an immobilized ligand (Fabian, M. A. et al., Nature Biotechnol., 2005, 23:329-336). These assays were conducted by DiscoverX (formerly Ambit; San Diego, Calif.). The percentage inhibition produced by incubation with a test compound is calculated relative to the non-inhibited control.

[1] = test system: Intestinal mucosa biopsies from the inflamed regions of the colon of IBD patients; experiment: (h) Human biopsy assay (cytokine release); format: cell-based
Experimental: Intestinal mucosa biopsies are obtained from the inflamed regions of the colon of IBD patients. The biopsy material is cut into small pieces (2-3 mm) and placed on steel grids in an organ culture chamber at 37° C. in a 5% CO2/95% O2 atmosphere in serum-free media. DMSO control or test compounds at the desired concentration are added to the tissue and incubated for 24 hr in the organ culture chamber. The supernatant is harvested for determination of IL-6, IL-8, […] and TNFα levels by R&D ELISA.

[2] = Pharmacokinetics, plasma and total colon tissue distribution in rats; format: in vivo, male Wistar rats; settings: Rat
Experimental: A study was conducted by Sai Life Sciences (Hinjewadi, Pune, India) to investigate the pharmacokinetics, as well as plasma and total colon tissue distribution of the compound of Example 77 in male Wistar rats following a single intravenous or oral administration.
30 male Wistar rats were divided into two groups: Group I (p.o.: 5 mg/kg; 27 rats) and Group II (i.v.: 0.25 mg/kg; 3 rats). Animals in Group I were administered orally with an aqueous suspension formulation (having 2% HPMC and 0.5% Tween 80) of the compound of Example 77, at a dose of 5 mg/kg. Animals in Group II were administered intravenously with a solution formulation (in 5% v/v DMSO, 7.5% w/v Solutol HS 15 and 87.5% saline (0.9% w/v NaCl)) of the compound of Example 77 at a dose of 0.25 mg/kg. From each rat, blood samples (approximately 120 μL) were collected from retro orbital plexus such that samples were obtained at pre-dose, 0.05, 0.13, 0.25, 0.5, 1, 2, 4, 8, and 24 hr (i.v.) and pre-dose, 0.5, 1, 2, 4, 6, 8, 12 and 24 hr (p.o.). Immediately after collection, plasma was harvested from blood by centrifugation and stored at −70° C. until analysis. Following collection of blood sample, the animals (Group I) were humanely euthanized by carbon dioxide asphyxiation. The total colon was isolated, flushed with cold phosphate buffer saline (pH 7.4) to remove contents and weighed. The total colon tissues homogenized with ice-cold phosphate buffered saline, pH 7.4. Buffer volume to be used for homogenization was twice the weight of tissue. All the samples were stored below −70° C. until bioanalysis. Total colon tissue homogenate volume was three times. Plasma and total colon tissue samples were quantified by LC-MS/MS method (LLOQ in plasma and total colon tissue=0.5 ng/mL)

BDF1 mice = experiment: (C) TNBS-induced colitis in mice; format: in vivo, mouse; design: TNBS Ulcer grade / TNBS LP inflammation: scale not given here; settings: 2 days; for TNBS LP inflammation / TNBS Ulcer grade: mice
Experimental: Non-fasted, 10-12 week old, male BDF1 mice are dosed by oral gavage twice daily with either vehicle (5 mL/kg), reference item (Budesonide 2.5 mg/kg) or test compound (1, 5 or 50 mg/kg) one day before (Day −1) stimulation of the inflammatory response by treatment with 2,4,6-trinitrobenzenesulphonic acid (TNBS) (15 mg/mL in 50% ethanol/50% saline). On Day 0 of the study TNBS (200 μL) is administered intra-colonically via a plastic catheter followed by BID dosing of the vehicle, reference or test compound for 2 or 4 days. During the study animals are weighed every day and stool observations are made and recorded as a score, based on stool consistency. At the time of sacrifice on Day 2 (or Day 4) the large intestine is removed and the length and weight recorded. Sections of the colon are taken for either MPO analysis to determine neutrophil infiltration or for histopathology involving scoring to determine disease severity.

[3] = male, Wistar, plasma, intravenous 0.25 mg/kg
[4] = male, Wistar, po, 5 mg/kg p.o., Plasma
[5] = male, Wistar, total colon tissue, po, 5 mg/kg p.o., Total colon

B-Raf (V600e), sequence (P15056 whole entry V600E): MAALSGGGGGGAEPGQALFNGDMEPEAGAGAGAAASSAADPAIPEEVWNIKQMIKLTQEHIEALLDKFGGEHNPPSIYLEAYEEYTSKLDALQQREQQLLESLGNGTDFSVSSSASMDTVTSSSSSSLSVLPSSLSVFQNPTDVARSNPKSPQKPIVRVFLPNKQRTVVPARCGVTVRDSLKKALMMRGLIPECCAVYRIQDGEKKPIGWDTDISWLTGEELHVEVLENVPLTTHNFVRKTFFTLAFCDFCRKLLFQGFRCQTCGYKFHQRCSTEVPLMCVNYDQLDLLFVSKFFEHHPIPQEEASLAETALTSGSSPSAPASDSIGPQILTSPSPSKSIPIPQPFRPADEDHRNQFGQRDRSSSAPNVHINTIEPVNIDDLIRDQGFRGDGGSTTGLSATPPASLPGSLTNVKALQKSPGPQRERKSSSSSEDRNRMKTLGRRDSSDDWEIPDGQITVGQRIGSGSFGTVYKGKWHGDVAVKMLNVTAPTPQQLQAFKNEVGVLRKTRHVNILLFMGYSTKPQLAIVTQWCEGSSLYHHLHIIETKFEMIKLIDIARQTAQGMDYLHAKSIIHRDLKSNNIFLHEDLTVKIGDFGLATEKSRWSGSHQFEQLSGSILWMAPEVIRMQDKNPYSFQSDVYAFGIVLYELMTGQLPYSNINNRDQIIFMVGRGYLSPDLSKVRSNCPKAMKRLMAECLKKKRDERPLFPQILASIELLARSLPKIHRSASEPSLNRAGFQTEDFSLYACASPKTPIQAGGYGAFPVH

Compound: C#Cc1cc(Nc2nccc(Oc3ccc(NC(=O)Nc4cc(C(C)(C)C)nn4-c4ccc(OC)cc4)c4ccccc34)n2)cc(C(=O)NCCN2CCOCC2)c1 [Example 77, 3-((4-((4-(3-(3-(tert-Butyl)-1-(4-methoxyphenyl)-1H-pyrazol-5-yl)ureido)-naphthalen-1-yl)oxy)pyrimidin-2-yl)amino)-5-ethynyl-N-(2-morpholinoethyl)benzamide]
- effect on the binding of the kinase B-Raf (V600e) to its standard ligand (B-Raf (V600e)): did not have any effect
- Cytokine release from biopsies of UC patients IL-1b release ([1]; 1 μg/mL, DMSO control 100%): 26 ± 16%
- Cytokine release from biopsies of UC patients IL-6 release ([1]; 1 μg/mL, DMSO control 100%): 67 ± 128%
- Cytokine release from biopsies of UC patients IL-8 release ([1]; 1 μg/mL, DMSO control 100%): 36 ± 117%
- cytokine release from biopsies from ulcerative colitis (UC) patients ([1]; added to biopsies in vitro): markedly reduced IL-1b, IL-6 and IL-8 release
- Fpo ([2]; 5 mg/kg p.o., Plasma): 0.1%
- AUC(0-inf) [2, 3]: 1190 ng·h/mL
- AUC(0-t) [2, 3]: 1180 ng·h/mL
- C0 [2, 3]: 4030 ng/mL
- Vd [2, 3]: 0.1 L/kg
- clearance [2, 3]: 3.5 mL/min/kg
- half-life [2, 3]: 0.8 h
- AUC(0-inf) [2, 4]: 17.5 ng·h/mL
- AUC(0-t) [2, 4]: 17.5 ng·h/mL
- Cmax [2, 4]: 2.5 ng/mL
- Tmax [2, 4]: 6 h
- AUC(0-inf) [2, 5]: 20700 ng·h/mL
- AUC(0-t) [2, 5]: 20500 ng·h/mL
- Cmax [2, 5]: 2500 ng/mL
- Tmax [2, 5]: 4 h
- histopathology analysis, in vivo model of colonic inflammation (BDF1 mice; TNBS-induced colitis, dosed orally at 5 mg/kg): significant activity
- TNBS LP inflammation (BDF1 mice; 1 mg/kg oral BID): 2.4 ± 0.3
- TNBS Ulcer grade (BDF1 mice; 1 mg/kg oral BID): 3.1 ± 0.5
- TNBS LP inflammation (BDF1 mice; 5 mg/kg oral BID): 2.1 ± 0.3
- TNBS Ulcer grade (BDF1 mice; 5 mg/kg oral BID): 2.4 ± 0.5
